Converted amounts (≈) assume the structure as drawn. “And” between values parts separate entries of the source, which are not always exact repeats. Identical values can stand only once.
Columns and labels:
[1] = tested on: nonreplicating M. tuberculosis; test: microbe, parasite or virus in culture; assay type: cell-based, Mycobacterium tuberculosis mc^26220 (ΔpanCDΔlysA); details: for activity against nonreplicating M. tuberculosis, in words: multistress nonreplicating model; for NR-MIC90 3 days OD580 = 0.01 / NR-MIC90 3 days OD580 = 0.1: 3 days exposure
[2] = tested on: replicating M. tuberculosis; test: MIC90 against replicating M. tuberculosis; assay type: cell-based, Mycobacterium tuberculosis mc^26220 (ΔpanCDΔlysA); details: for R-MIC90 3 days OD580 = 0.01: replicating; for activity against replicating M. tuberculosis on addition of clavulanate: data not shown
[3] = tested on: nonreplicating wild-type M. tuberculosis; assay type: cell-based, Mycobacterium tuberculosis H37Rv; details: for bactericidal activity against nonreplicating wild-type M. tuberculosis (Figure S2): in words
[4] = Mouse liver microsomal stability; assay type: in vitro ADME; details: assayed at 0-60 min
Solubility at pH 7.4 = assay type: physicochemical; details: after shaking at room temperature for 4 h
[5] = tested on: nonreplicating M. tuberculosis; test: Charcoal agar resazurin assay; assay type: cell-based; details: for dose-dependent decrease of CARA fluorescence, effect of NaNO2: with or without 0.5 mM NaNO2, 7 days, OD580 0.1 or 0.01
[6] = Hydrolytic stability at pH 2, 7 and 12; assay type: physicochemical; details: percent remaining after a 4 h incubation at 37 °C
[7] = Parallel artificial membrane permeability assay; assay type: in vitro ADME
[8] = tested on: intracellular M. tuberculosis; details: for CFU reduction of intracellular M. tuberculosis: IFNγ-activated macrophages, 100 μg/mL, 4 days (1) or 3 days (5)
[9] = Stability in cell-free PBS and nonreplicating medium; assay type: physicochemical; details: day 6; for d6: % remaining in PBS: cell-free PBS pH 7.4, 37 °C; for d6: % remaining NR medium + 0.5 mM NaNO2: cell-free nonreplicating medium pH 5.0 with 0.5 mM NaNO2, 37 °C; for d6: % remaining NR medium: cell-free nonreplicating medium pH 5.0 without NaNO2, 37 °C
Plasma stability, mouse = details: 1 μg/mL, 37 °C, parent ion monitored
[10] = Human liver microsomal stability; assay type: in vitro ADME; details: liver microsomes, human liver microsomes t1/2, assayed at 0-60 min
M. tuberculosis = details: cited from earlier work
[11] = nonreplicating, 6 days exposure

COC(=O)C1=C(C)CS[C@@H]2[C@H](NC(=O)[C@H](N)c3ccccc3)C(=O)N12 [4a]
activity against nonreplicating M. tuberculosis, in words [1]: poorly active | activity against replicating M. tuberculosis, in words [2]: completely inactive

CCCOC(=O)C1=C(C)CS[C@@H]2[C@H](NC(=O)[C@H](N)c3ccccc3)C(=O)N12 [4b]
MIC90 ([1]; Mycobacterium tuberculosis, read-out: NR d7 OD=0.1 MIC90): 15.5 µg/mL (≈ 39.8 µM)

CC1=C(c2nc(C)no2)N2C(=O)[C@@H](NC(=O)[C@H](N)c3ccccc3)[C@H]2SC1 [4c]
activity against nonreplicating M. tuberculosis, in words [1]: poorly active | activity against replicating M. tuberculosis, in words [2]: completely inactive

CCCCOC(=O)C1=C(C)CS[C@@H]2[C@H](NC(=O)CCc3ccccc3)C(=O)N12 [12e]
bactericidal activity against nonreplicating wild-type M. tuberculosis (Figure S2) [3]: bactericidal

CCOC(=O)C1=C(C)CS[C@@H]2[C@H](NC(=O)CCc3ccc(OC)cc3)C(=O)N12 [12i]
bactericidal activity against nonreplicating wild-type M. tuberculosis (Figure S2) [3]: bactericidal

CC1=C(c2nc(C)no2)N2C(=O)[C@@H](NC(=O)COc3ccc(Cl)cc3)[C@H]2SC1 [18d]
bactericidal activity against nonreplicating wild-type M. tuberculosis (Figure S2) [3]: bactericidal

CC1=C(c2nc(C)no2)N2C(=O)[C@@H](NC(=O)OCC(Cl)(Cl)Cl)[C@H]2SC1 [19d]
bactericidal activity against nonreplicating wild-type M. tuberculosis (Figure S2) [3]: bactericidal

CCCc1noc(C2=C(C)CS[C@@H]3[C@H](NC(=O)CCc4ccc(OC)cc4)C(=O)N23)n1 [21b]
bactericidal activity against nonreplicating wild-type M. tuberculosis (Figure S2) [3]: bactericidal

CCCc1noc(C2=C(C)CS[C@@H]3[C@H](NC(=O)COc4ccc(Cl)cc4)C(=O)N23)n1 [22c]
bactericidal activity against nonreplicating wild-type M. tuberculosis (Figure S2) [3]: bactericidal

C[C@@H](O)[C@H]1C(=O)N2C(C(=O)O)=C(S[C@@H]3CN[C@H](C(=O)N(C)C)C3)[C@H](C)[C@H]12 [Meropenem, reference compound]
enhancement of replicating MIC90 by clavulanate ([2]; addition of clavulanate): 4 fold

CC1=C(C(=O)O)N2C(=O)[C@@H](NC(=O)[C@H](N)c3ccccc3)[C@H]2SC1 [cephalexin 4, cephalexin, reference compound]
activity against nonreplicating M. tuberculosis, in words [1]: inactive | NR-MIC90 3 days OD580 = 0.01 ([1]; nonreplicating, OD580 = 0.01): 97.93 µg/mL | NR-MIC90 3 days OD580 = 0.1 ([1]; nonreplicating): 61.35 µg/mL | NR-MIC90 6 days OD580 = 0.1 [1, 11]: 70.42 µg/mL | R-MIC90 3 days OD580 = 0.01 [2]: 33.99 µg/mL

CCCOC(=O)C1=C(C)CS[C@@H]2[C@H](NC(=O)COc3ccccc3)C(=O)N12 [compound 1, Propyl (6R,7R)-3-Methyl-8-oxo-7-(2-phenoxyacetamido)-5-thia-1-azabicyclo[4.2.0]oct-2-ene-2-carboxylate]
mouse liver microsomes t1/2 [4]: rapidly metabolized | NR-MIC90 3 days OD580 = 0.01 ([1]; nonreplicating, OD580 = 0.01): 0.90 µg/mL | NR-MIC90 3 days OD580 = 0.1 ([1]; nonreplicating): 1.76 µg/mL | NR-MIC90 6 days OD580 = 0.01 ([1]; nonreplicating, 6 days exposure, OD580 = 0.01): 0.64 µg/mL | NR-MIC90 6 days OD580 = 0.1 [1, 11]: 1.05 µg/mL | concentration that reduced colony-forming units by 2 log10 [3]: 0.7–0.8 μg/mL | solubility (Solubility at pH 7.4): 22.7 µM (≈ 8.86 µg/mL) | solubility at 4 h (Solubility at pH 7.4; pH 7.4, solubility): 23 µM (≈ 8.98 µg/mL) | enhancement of activity by nitrite ([5]; CARA, OD580 0.01, 0.5 mM NaNO2): 32- to 64 fold | dose-dependent decrease of CARA fluorescence, effect of NaNO2 [5]: strongly enhanced by the addition of NaNO2 | pH 2 stability [6]: 100% and 110% | pH 12 stability [6]: 0.000% | PAMPA log Pe [7]: –5.15 | CFU reduction of intracellular M. tuberculosis [8]: 1–2 log10 | d6: % remaining in PBS [9]: stable | d6: % remaining NR medium + 0.5 mM NaNO2 [9]: stable | d6: % remaining NR medium [9]: stable | stability in mouse plasma (time to complete transformation) (Plasma stability, mouse): < 5 min | activity against replicating M. tuberculosis on addition of clavulanate ([2]; addition of clavulanate): did not lead to activity | R-MIC90 3 days OD580 = 0.01 [2]: >100 µg/mL

CCCOC(=O)N[C@@H]1C(=O)N2C(C(=O)OCCC)=C(C)CS[C@H]12 [compound 2]
NR-MIC90 3 days OD580 = 0.01 ([1]; nonreplicating, OD580 = 0.01): 3.11 µg/mL | NR-MIC90 3 days OD580 = 0.1 ([1]; nonreplicating): 2.61 µg/mL | NR-MIC90 6 days OD580 = 0.1 [1, 11]: 0.52 µg/mL | d6: % remaining in PBS [9]: stable | d6: % remaining NR medium + 0.5 mM NaNO2 [9]: stable | d6: % remaining NR medium [9]: stable | activity against replicating M. tuberculosis on addition of clavulanate ([2]; addition of clavulanate): did not lead to activity | R-MIC90 3 days OD580 = 0.01 [2]: 55.44 µg/mL

CCCN[C@@H]1C(=O)N2C(C(=O)OCCC)=C(C)CS[C@H]12 [compound 3]
activity against nonreplicating M. tuberculosis, in words [1]: significant activity | NR-MIC90 3 days OD580 = 0.01 ([1]; nonreplicating, OD580 = 0.01): 0.7 µg/mL | NR-MIC90 3 days OD580 = 0.1 ([1]; nonreplicating): 2.69 µg/mL | NR-MIC90 6 days OD580 = 0.1 [1, 11]: 0.45 µg/mL | d6: % remaining NR medium + 0.5 mM NaNO2 [9]: unstable | activity against replicating M. tuberculosis on addition of clavulanate ([2]; addition of clavulanate): did not lead to activity | R-MIC90 3 days OD580 = 0.01 [2]: >100 µg/mL

CC1=C(c2nc(C)no2)N2C(=O)[C@@H](NC(=O)COc3ccccc3)[C@H]2SC1 [compound 5, N-((6R,7R)-3-Methyl-2-(3-methyl-1,2,4-oxadiazol-5-yl)-8-oxo-5-thia-1-azabicyclo[4.2.0]oct-2-en-7-yl)-2-phenoxyacetamide]
mouse liver microsomes t1/2 [4]: rapidly metabolized | concentration that reduced colony-forming units by 2 log10 [3]: 0.7–0.8 μg/mL | bactericidal activity against nonreplicating wild-type M. tuberculosis (Figure S2) [3]: bactericidal | solubility (Solubility at pH 7.4): 83.7 µM (≈ 32.3 µg/mL) | dose-dependent decrease of CARA fluorescence, effect of NaNO2 [5]: strongly enhanced by the addition of NaNO2 | pH 2 stability [6]: 100% | pH 12 stability [6]: 0.000% | PAMPA log Pe [7]: –4.87 | CFU reduction of intracellular M. tuberculosis [8]: 1–2 log10 | IFNγ dependence of bactericidal activity against intracellular M. tuberculosis ([8]; macrophages activated or not with 50 ng/mL IFNγ): strictly IFNγ dependent | d6: % remaining NR medium + 0.5 mM NaNO2 [9]: stable | half-life [10]: ~1.33 h | stability in mouse plasma (time to complete transformation) (Plasma stability, mouse): < 5 min

COCC1=C(C)CS[C@@H]2[C@H](NC(=O)COc3ccccc3)C(=O)N12 [compound 10]
activity against nonreplicating M. tuberculosis, in words [1]: inactive

CCCc1noc(C2=C(C)CS[C@@H]3[C@H](NC(=O)c4ccc(Cl)cc4)C(=O)N23)n1 [compound 23]
bactericidal activity against nonreplicating wild-type M. tuberculosis (Figure S2) [3]: bactericidal

C[C@@H](O)[C@H]1C(=O)N2C(C(=O)O)=C([C@H]3CCCO3)S[C@H]12 [faropenem, reference compound]
activity against nonreplicating M. tuberculosis, in words [1]: inactive | killing of replicating and nongrowing M. tuberculosis (M. tuberculosis): kill both replicating and nongrowing M. tuberculosis

Reference: paper PMC4947980 (Journal of Medicinal Chemistry, 2016)
